Biological target: Aβ42 (Homo sapiens, UniProt P05067)
Experiment: Th-T (thioflavin-T) assay of Aβ42 aggregation
Format: biochemical
Settings: for Th-T fluorescence of Aβ42 (sheet Fig. 7a), mean of three wells: head suffix _50 (concentration 50); for Th-T assay plate reading, mean of three wells (Supplementary Fig. 47): source data, Ab alone and No Ab as controls; for Th-T fluorescence, mean of three wells: Supplementary Fig. 47 source data

Sequence of Aβ42 (P05067 672-713): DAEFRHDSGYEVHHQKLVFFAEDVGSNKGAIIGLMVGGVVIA

C=C1CC[C@@H]2[C@](C)(CC[C@H]3O[C@H](C=C(C)C)C[C@@]23C)[C@@H]1Cc1c(OC)oc(CO)c(C)c1=O [Compound 20]
Th-T fluorescence of Aβ42 (sheet Fig. 7a), mean of three wells (reading M73): 2.113 | Th-T fluorescence of Aβ42 (sheet Fig. 7a), mean of three wells (reading M74): 2.11 | Th-T fluorescence of Aβ42 (sheet Fig. 7a), mean of three wells (reading M75): 2.1032 | Th-T fluorescence of Aβ42 (sheet Fig. 7a), mean of three wells (reading M76): 2.123 | Th-T fluorescence of Aβ42 (sheet Fig. 7a), mean of three wells (reading M77): 2.122 | Th-T fluorescence of Aβ42 (sheet Fig. 7a), mean of three wells (reading M78): 2.117 | Th-T fluorescence of Aβ42 (sheet Fig. 7a), mean of three wells (reading M79): 2.1153 | Th-T fluorescence of Aβ42 (sheet Fig. 7a), mean of three wells (reading M80): 2.1 | Th-T fluorescence of Aβ42 (sheet Fig. 7a), mean of three wells (reading M81): 2.1 | Th-T fluorescence of Aβ42 (sheet Fig. 7a), mean of three wells (reading M82): 2.102 | Th-T fluorescence of Aβ42 (sheet Fig. 7a), mean of three wells (reading M83): 2.096 | Th-T fluorescence of Aβ42 (sheet Fig. 7a), mean of three wells (reading M84): 2.077 | Th-T assay plate reading, mean of three wells (Supplementary Fig. 47) (measurement M1): 0.2292 | Th-T assay plate reading, mean of three wells (Supplementary Fig. 47) (measurement M2): 0.2238 | Th-T assay plate reading, mean of three wells (Supplementary Fig. 47) (measurement M3): 0.2417 | Th-T assay plate reading, mean of three wells (Supplementary Fig. 47) (measurement M4): 0.2884 | Th-T assay plate reading, mean of three wells (Supplementary Fig. 47) (measurement M5): 0.3754 | Th-T assay plate reading, mean of three wells (Supplementary Fig. 47) (measurement M6): 0.3834 | Th-T assay plate reading, mean of three wells (Supplementary Fig. 47) (measurement M7): 0.4602 | Th-T assay plate reading, mean of three wells (Supplementary Fig. 47) (measurement M8): 0.4852 | Th-T assay plate reading, mean of three wells (Supplementary Fig. 47) (measurement M9): 0.5189 | Th-T assay plate reading, mean of three wells (Supplementary Fig. 47) (measurement M10): 0.5747 | Th-T assay plate reading, mean of three wells (Supplementary Fig. 47) (measurement M11): 0.6382 | Th-T assay plate reading, mean of three wells (Supplementary Fig. 47) (measurement M12): 0.9536 | Th-T assay plate reading, mean of three wells (Supplementary Fig. 47) (measurement M13): 1.7846 | Th-T assay plate reading, mean of three wells (Supplementary Fig. 47) (measurement M14): 2.679 | Th-T assay plate reading, mean of three wells (Supplementary Fig. 47) (measurement M15): 3.243 | Th-T assay plate reading, mean of three wells (Supplementary Fig. 47) (measurement M16): 3.548 | Th-T fluorescence, mean of three wells (Fig. 7a) (reading M107, compound at 10 (head suffix _10)): 3.243 | Th-T fluorescence, mean of three wells (Fig. 7a) (reading M107, compound at 20 (head suffix _20)): 3.218 | Th-T fluorescence, mean of three wells (Fig. 7a) (reading M107, compound at 50 (head suffix _50)): 2.093 | Th-T fluorescence, mean of three wells (Fig. 7a) (reading M108, compound at 10 (head suffix _10)): 3.266 | Th-T fluorescence, mean of three wells (Fig. 7a) (reading M108, compound at 20 (head suffix _20)): 3.22 | Th-T fluorescence, mean of three wells (Fig. 7a) (reading M108, compound at 50 (head suffix _50)): 2.097 | Th-T fluorescence, mean of three wells (Fig. 7a) (reading M109, compound at 10 (head suffix _10)): 3.248 | Th-T fluorescence, mean of three wells (Fig. 7a) (reading M109, compound at 20 (head suffix _20)): 3.217 | Th-T fluorescence, mean of three wells (Fig. 7a) (reading M109, compound at 50 (head suffix _50)): 2.11 | Th-T fluorescence, mean of three wells (Fig. 7a) (reading M110, compound at 10 (head suffix _10)): 3.266 | Th-T fluorescence, mean of three wells (Fig. 7a) (reading M110, compound at 20 (head suffix _20)): 3.23 | Th-T fluorescence, mean of three wells (Fig. 7a) (reading M110, compound at 50 (head suffix _50)): 2.1005 | Th-T fluorescence, mean of three wells (Fig. 7a) (reading M111, compound at 10 (head suffix _10)): 3.255 | Th-T fluorescence, mean of three wells (Fig. 7a) (reading M111, compound at 20 (head suffix _20)): 3.22 | Th-T fluorescence, mean of three wells (Fig. 7a) (reading M111, compound at 50 (head suffix _50)): 2.105 | Th-T fluorescence, mean of three wells (Fig. 7a) (reading M112, compound at 10 (head suffix _10)): 3.256 | Th-T fluorescence, mean of three wells (Fig. 7a) (reading M112, compound at 20 (head suffix _20)): 3.191 | Th-T fluorescence, mean of three wells (Fig. 7a) (reading M112, compound at 50 (head suffix _50)): 2.0956 | Th-T fluorescence, mean of three wells (Fig. 7a) (reading M113, compound at 10 (head suffix _10)): 3.234 | Th-T fluorescence, mean of three wells (Fig. 7a) (reading M113, compound at 20 (head suffix _20)): 3.181 | Th-T fluorescence, mean of three wells (Fig. 7a) (reading M113, compound at 50 (head suffix _50)): 2.0902 | Th-T fluorescence, mean of three wells (Fig. 7a) (reading M114, compound at 10 (head suffix _10)): 3.244 | Th-T fluorescence, mean of three wells (Fig. 7a) (reading M114, compound at 20 (head suffix _20)): 3.188 | Th-T fluorescence, mean of three wells (Fig. 7a) (reading M114, compound at 50 (head suffix _50)): 2.0998 | Th-T fluorescence, mean of three wells (Fig. 7a) (reading M115, compound at 10 (head suffix _10)): 3.222 | Th-T fluorescence, mean of three wells (Fig. 7a) (reading M115, compound at 20 (head suffix _20)): 3.199 | Th-T fluorescence, mean of three wells (Fig. 7a) (reading M115, compound at 50 (head suffix _50)): 2.1006 | Th-T fluorescence, mean of three wells (Fig. 7a) (reading M116, compound at 10 (head suffix _10)): 3.244 | Th-T fluorescence, mean of three wells (Fig. 7a) (reading M116, compound at 20 (head suffix _20)): 3.193 | Th-T fluorescence, mean of three wells (Fig. 7a) (reading M116, compound at 50 (head suffix _50)): 2.109 | Th-T fluorescence, mean of three wells (Fig. 7a) (reading M117, compound at 10 (head suffix _10)): 3.211 | Th-T fluorescence, mean of three wells (Fig. 7a) (reading M117, compound at 20 (head suffix _20)): 3.166 | Th-T fluorescence, mean of three wells (Fig. 7a) (reading M117, compound at 50 (head suffix _50)): 2.104 | Th-T fluorescence, mean of three wells (Fig. 7a) (reading M118, compound at 10 (head suffix _10)): 3.228 | Th-T fluorescence, mean of three wells (Fig. 7a) (reading M118, compound at 20 (head suffix _20)): 3.17 | Th-T fluorescence, mean of three wells (Fig. 7a) (reading M118, compound at 50 (head suffix _50)): 2.102 | Th-T fluorescence, mean of three wells (Fig. 7a) (reading M119, compound at 10 (head suffix _10)): 3.2146 | Th-T fluorescence, mean of three wells (Fig. 7a) (reading M119, compound at 20 (head suffix _20)): 3.1938 | Th-T fluorescence, mean of three wells (Fig. 7a) (reading M119, compound at 50 (head suffix _50)): 2.1065 | Th-T fluorescence, mean of three wells (Fig. 7a) (reading M120, compound at 10 (head suffix _10)): 3.221 | Th-T fluorescence, mean of three wells (Fig. 7a) (reading M120, compound at 20 (head suffix _20)): 3.171 | Th-T fluorescence, mean of three wells (Fig. 7a) (reading M120, compound at 50 (head suffix _50)): 2.103 | Th-T fluorescence, mean of three wells (Fig. 7a) (reading M121, compound at 10 (head suffix _10)): 3.196 | Th-T fluorescence, mean of three wells (Fig. 7a) (reading M121, compound at 20 (head suffix _20)): 3.1528 | Th-T fluorescence, mean of three wells (Fig. 7a) (reading M121, compound at 50 (head suffix _50)): 2.099 | Th-T fluorescence, mean of three wells (Fig. 7a) (reading M122, compound at 10 (head suffix _10)): 3.2052 | Th-T fluorescence, mean of three wells (Fig. 7a) (reading M122, compound at 20 (head suffix _20)): 3.15 | Th-T fluorescence, mean of three wells (Fig. 7a) (reading M122, compound at 50 (head suffix _50)): 2.114 | Th-T fluorescence, mean of three wells (Fig. 7a) (reading M123, compound at 10 (head suffix _10)): 3.204 | Th-T fluorescence, mean of three wells (Fig. 7a) (reading M123, compound at 20 (head suffix _20)): 3.156 | Th-T fluorescence, mean of three wells (Fig. 7a) (reading M123, compound at 50 (head suffix _50)): 2.111 | Th-T fluorescence, mean of three wells (Fig. 7a) (reading M124, compound at 10 (head suffix _10)): 3.218 | Th-T fluorescence, mean of three wells (Fig. 7a) (reading M124, compound at 20 (head suffix _20)): 3.1455 | Th-T fluorescence, mean of three wells (Fig. 7a) (reading M124, compound at 50 (head suffix _50)): 2.111 | Th-T fluorescence, mean of three wells (Fig. 7a) (reading M125, compound at 10 (head suffix _10)): 3.1992 | Th-T fluorescence, mean of three wells (Fig. 7a) (reading M125, compound at 20 (head suffix _20)): 3.1234 | Th-T fluorescence, mean of three wells (Fig. 7a) (reading M125, compound at 50 (head suffix _50)): 2.096 | Th-T fluorescence, mean of three wells (Fig. 7a) (reading M126, compound at 10 (head suffix _10)): 3.205 | Th-T fluorescence, mean of three wells (Fig. 7a) (reading M126, compound at 20 (head suffix _20)): 3.128 | Th-T fluorescence, mean of three wells (Fig. 7a) (reading M126, compound at 50 (head suffix _50)): 2.099 | Th-T fluorescence, mean of three wells (Fig. 7a) (reading M127, compound at 10 (head suffix _10)): 3.195 | Th-T fluorescence, mean of three wells (Fig. 7a) (reading M127, compound at 20 (head suffix _20)): 3.121 | Th-T fluorescence, mean of three wells (Fig. 7a) (reading M127, compound at 50 (head suffix _50)): 2.104 | Th-T fluorescence, mean of three wells (Fig. 7a) (reading M128, compound at 10 (head suffix _10)): 3.198 | Th-T fluorescence, mean of three wells (Fig. 7a) (reading M128, compound at 20 (head suffix _20)): 3.11 | Th-T fluorescence, mean of three wells (Fig. 7a) (reading M128, compound at 50 (head suffix _50)): 2.109 | Th-T fluorescence, mean of three wells (time-course reading M97): 4.216 | Th-T fluorescence, mean of three wells (time-course reading M98): 4.216 | Th-T fluorescence, mean of three wells (time-course reading M99): 4.236 | Th-T fluorescence, mean of three wells (time-course reading M100): 4.238 | Th-T fluorescence, mean of three wells (time-course reading M101): 4.225 | Th-T fluorescence, mean of three wells (time-course reading M102): 4.201 | Th-T fluorescence, mean of three wells (time-course reading M103): 4.222 | Th-T fluorescence, mean of three wells (time-course reading M104): 4.203 | Th-T fluorescence, mean of three wells (time-course reading M105): 4.225 | Th-T fluorescence, mean of three wells (time-course reading M106): 4.21 | Th-T fluorescence, mean of three wells (time-course reading M107): 4.216 | Th-T fluorescence, mean of three wells (time-course reading M108): 4.2224 | Th-T fluorescence, mean of three wells (time-course reading M109): 4.227 | Th-T fluorescence, mean of three wells (time-course reading M110): 4.248 | Th-T fluorescence, mean of three wells (time-course reading M111): 4.24 | Th-T fluorescence, mean of three wells (time-course reading M112): 4.225 | Th-T fluorescence, mean of three wells (time-course reading M113): 4.225 | Th-T fluorescence, mean of three wells (time-course reading M114): 4.212 | Th-T fluorescence, mean of three wells (time-course reading M115): 4.199 | Th-T fluorescence, mean of three wells (time-course reading M116): 4.199
